Test results as given in US5145954A, “Derivatives of alphaphenylacrylic acid and their use in agriculture” (Imperial Chemical Industries PLC, priority 1986, dated 1992).

Columns and labels:
Format in all cases: in vivo
Puccinia recondita = assay: foliar fungal disease test on plants, Puccinia recondita (wheat); conditions: 100 ppm foliar spray plus root drench ca. 40 ppm a.i./dry soil; protectant
Erysiphe graminis = assay: foliar fungal disease test on plants, Erysiphe graminis (barley); conditions: 100 ppm foliar spray plus root drench ca. 40 ppm a.i./dry soil; inoculated 24 hours before treatment
Venturia inaequalis = assay: foliar fungal disease test on plants, Venturia inaequalis (apple); conditions: 100 ppm foliar spray plus root drench ca. 40 ppm a.i./dry soil; protectant
Pyricularia oryzae = conditions: 100 ppm foliar spray plus root drench ca. 40 ppm a.i./dry soil; protectant
Cercospora arachidicola = assay: foliar fungal disease test on plants, Cercospora arachidicola (peanut); conditions: 100 ppm foliar spray plus root drench ca. 40 ppm a.i./dry soil; protectant
Plasmopara viticola = assay: foliar fungal disease test on plants, Plasmopara viticola (vine); conditions: 100 ppm foliar spray plus root drench ca. 40 ppm a.i./dry soil; protectant
Wheat = assay: whole plant screen for plant growth regulating activity, wheat; conditions: 4000 ppm (4 kg/ha), after 2-6 weeks
Experimental: (§1) These compounds were tested on a whole plant screen for plant growth regulating activity against six species of plant. The plant species used in this screen are presented in Table VIII with the leaf stage at which they were sprayed.
(§2) A formulation of each chemical was applied at 4000 ppm (4 kg/ha in a 1000 1/ha field volume) using a tracksprayer and a SS8004E (Teejet) nozzle. Additional tests were done on tomatoes at 2000 and 500 ppm.
(§3) After spraying, the plants were grown in a glasshouse with 25° C. day/22° C. night temperatures. The exception to this were the temperate cereals, wheat and barley which were grown in 13°-16° C. day/11°-13° C. night temperatures. Supplementary lighting was supplied when necessary to provide an average photoperiod of 16 hours (14 hours minimum).
(§4) After 2-6 weeks in the glasshouse, depending on species and time of year, the plants were visually assessed for morphological characteristics against a control plant sprayed with a blank formulation.
Wheat WW Timmo 1-1.5 leaves

Tomato = assay: whole plant screen for plant growth regulating activity, tomato; design: key to greening effect, TO* / greening effect, TO^+ / apical damage, TO* / tillering or side shooting, TO* / apical damage, TO^+ / tillering or side shooting, TO^+: Greening effect; Apical damage; Tillering or side shooting; conditions: after 2-6 weeks
Experimental: as §1, §2, §3, §4
To- TO Ailsa 2-21/2 leaves

Rice = assay: whole plant screen for plant growth regulating activity, rice; conditions: 4000 ppm (4 kg/ha), after 2-6 weeks
Experimental: as §1, §2, §3, §4
Rice RC Ishikari 2-21/2 leaves

Maize = assay: whole plant screen for plant growth regulating activity, maize; design: key: Greening effect; Apical damage; Tillering or side shooting; conditions: 4000 ppm (4 kg/ha), after 2-6 weeks
Experimental: as §1, §2, §3, §4

[1] = test system: Tetranychus urticae (spider mites - adult); assay: insecticidal test TUa, spider mites adult, contact; conditions: 500 ppm, French bean leaf, duration 3
Experimental: (§5) The activity of the compound was determined using a variety of insect, mite and nematode pests. The compound was used in the form of liquid preparations containing from 100 to 500 parts per million (ppm) by weight of the compound. The preparations were made by dissolving the compound in acetone and diluting the solutions with water containing 0.1% by weight of a wetting agent sold under the trade name "SYNPERONIC" NX until the liquid preparations contained the required concentration of the product. "SYNPERONIC" is a Registered Trade Mark.
(§6) The test procedure adopted with regard to each pest was basically the same and comprised supporting a number of the pests on a medium which was usually a host plant or a foodstuff on which the pests feed, and treating either or both the pests and the medium with the preparations. The mortality of the pests was then assessed at periods usually varying from one to seven days after the treatment. […]

[2] = test system: Tetranychus urticae (spider mites - ova); assay: insecticidal test TUe, spider mites ova, contact; conditions: 500 ppm, French bean leaf, duration 6
Experimental: as §5, §6

Myzus persicae = assay: insecticidal test MP, aphids, contact; conditions: 500 ppm, Chinese cabbage leaf, duration 3
Experimental: as §5, §6

Nilaparvata lugens = assay: insecticidal test NL, brown plant hopper nymphs, contact; conditions: 500 ppm, rice plant, duration 3
Experimental: as §5, §6

Musca domestica [3] = assay: insecticidal test MD, houseflies adults, contact; conditions: 500 ppm, cotton wool/sugar, duration 1
Experimental: as §5, §6

Blattella germanica = assay: insecticidal test BG, cockroach nymphs, residual; conditions: 500 ppm, plastic pot, duration 3
Experimental: as §5, §6

Heliothis virescens = assay: insecticidal test HV, tobacco budworm larvae, residual; conditions: 500 ppm, cotton leaf, duration 3
Experimental: as §5, §6

Spodoptera exigua = assay: insecticidal test SP, lesser army worm larvae, residual; conditions: 500 ppm, cotton leaf, duration 3
Experimental: as §5, §6

Diabrotica balteata = assay: insecticidal test DB, rootworm larvae, residual; conditions: 500 ppm, filter paper/maize seed, duration 3
Experimental: as §5, §6

Meloidogyne incognita = assay: nematode test MI, tomato root knot eelworm larvae, semi in-vitro, residual; conditions: 125 ppm, duration 7
Experimental: as §5, §6

Musca domestica [4] = assay: whole plant or invertebrate
Experimental: A sample of compound 9 was diluted in 2 mls acetone and made up to a 2000 ppm solution with 0.1% aqueous synperonic solution. The solution (1 ml) was then sprayed directly onto twenty mixed sex houseflies held in a drinking cup. Immediately after spraying the cups were inverted and left to dry. An assessment of knockdown was made when the cups were righted 15 minutes later. The flies were then provided with a 10% sucrose solution on a cotton wool pad, and held for 48 hours in a holding room conditioned at 25° C. and 65% relative humidity before a mortality assessment was made.

| SMILES | disease control grade, PUCCINIA RECONDITA (Wheat) (Puccinia recondita) | disease control grade, ERYSIPHE GRAMINIS (Barley) (Erysiphe graminis) | disease control grade, VENTURIA INAEQUALIS (Apple) (Venturia inaequalis) | disease control grade, P[…] (Rice) (Pyricularia oryzae) | disease control grade, CERCOSPORA ARACHIDICOLA (Peanut) (Cercospora arachidicola) | disease control grade, PLASMOPARA VITICOLA (Vine) (Plasmopara viticola) | greening effect, TO^+ (Tomato; 500 ppm) | retardation, TO^+ (Tomato; 500 ppm) | retardation, TO* (Tomato; 2000 ppm) | other results |
| --- | --- | --- | --- | --- | --- | --- | --- | --- | --- | --- |
| COC(=O)/C(=C/SC)c1ccccc1Oc1ccccc1 [1 of Table II] | 4 | 3 (trace - 5% of disease on untreated plants) | 4 | 2 (6-25% of disease on untreated plants) | 0 (60-100% of disease on untreated plants) | 4 | G | 1 (10-30%) | 1 (10-30%) | retardation, WW (Wheat): 1 (10-30%) |
| COC(=O)/C(=C/SC)c1ccccc1 [1 of Table I] | 0 (60-100% of disease on untreated plants) | 0 (60-100% of disease on untreated plants) | 0 (60-100% of disease on untreated plants) | 1 (26-59% of disease on untreated plants) | 0 (60-100% of disease on untreated plants) | 0 (60-100% of disease on untreated plants) |  | 1 (10-30%) | 1 (10-30%) | retardation, RC (Rice): 2 (21-60%) |
| COC(=O)/C(=C\SC)c1ccccc1 [2 of Table I] | 0 (60-100% of disease on untreated plants) | 0 (60-100% of disease on untreated plants) | 0 (60-100% of disease on untreated plants) | 0 (60-100% of disease on untreated plants) | 0 (60-100% of disease on untreated plants) | 1 (26-59% of disease on untreated plants) | G | 2 (21-60%) | 1 (10-30%) | retardation, RC (Rice): 1 (10-30%); greening effect, TO* (Tomato; 2000 ppm): G |
| COC(=O)/C(=C/SC)c1ccccc1/C=C/c1ccccc1 [9 of Table I] | 3 (trace - 5% of disease on untreated plants) | 0 (60-100% of disease on untreated plants) | 4 | 4 | 1 (26-59% of disease on untreated plants) | 0 (60-100% of disease on untreated plants) | G |  |  | apical damage, TO^+ (Tomato; 500 ppm): A; tillering or side shooting, TO^+ (Tomato; 500 ppm): T; apical damage, TO* (Tomato; 2000 ppm): A; greening effect, TO* (Tomato; 2000 ppm): G; tillering or side shooting, TO* (Tomato; 2000 ppm): T |
| COC(=O)/C(=C\SC)c1ccccc1/C=C/c1ccccc1 [10 of Table I] | 2 (6-25% of disease on untreated plants) | 0 (60-100% of disease on untreated plants) | 4 | 3 (trace - 5% of disease on untreated plants) | 4 | 4 |  |  |  |  |
| COC(=O)/C(=C/SC)c1ccccc1CCc1ccc(F)cc1 [96 of Table I] | 0 (60-100% of disease on untreated plants) | 0 (60-100% of disease on untreated plants) | 3 (trace - 5% of disease on untreated plants) | 0 (60-100% of disease on untreated plants) | 0 (60-100% of disease on untreated plants) | 0 (60-100% of disease on untreated plants) | G |  | 1 (10-30%) | apical damage, MZ (Maize): A; greening effect, MZ (Maize): G |
| COC(=O)/C(=C/SC)c1ccccc1/C=C/c1ccccc1 [Compound 9 of Table I] |  |  |  |  |  |  |  |  |  | grading of mortality, TUA [1]: 0 (less than 50% mortality); grading of mortality, TUE [2]: 0 (less than 50% mortality); grading of mortality, MP (Myzus persicae): 0 (less than 50% mortality); grading of mortality, NL (Nilaparvata lugens): 0 (less than 50% mortality); grading of mortality, MD (Musca domestica [3]): 5 (50-79% mortality); grading of mortality, BG (Blattella germanica): 0 (less than 50% mortality); grading of mortality, HV (Heliothis virescens): 0 (less than 50% mortality); grading of mortality, SP (Spodoptera exigua): 0 (less than 50% mortality); grading of mortality, DB (Diabrotica balteata): 5 (50-79% mortality); grading of root knot reduction, MI* (Meloidogyne incognita): 9 (70-100% root knot reduction as compared to an untreated plant for Meloidogyne incognita); knockdown (Musca domestica [4]; 1 ml of 2000 ppm solution sprayed on twenty houseflies, assessed 15 minutes later): 88%; mortality at 2000 ppm (Musca domestica [4]; Musca domestica, topical, 48 h, read-out: kill): 15% |
